A550 nm data for 1 molecule are collected here from patent US20110269219A1, “Method for increasing algae growth and the use thereof in production of algae-derived biofuels and other chemical” (GST Growth, LLC, priority 2010, published 2011).

The assay has as its system Protococcus. Kind of assay: Growth of Protococcus liquid cultures monitored at Absorbance 550 nm. In kind it is cell-based. Particulars: Protococcus in water. From the text: Liquid cultures were established in the laboratory from the algae specimens collected to include three experimental treatments, which were: A control of Protococcus in water; • 1). Protococcus in water supplemented with 0.5% methanol, which is known to stimulate growth of PPFM bacteria; and • 2) Protococcus in water supplemented with a Vitamin B12 overproducing PPFM. The growth of the cultures was monitored at Absorbance 550 nm with the results below in Table 2 being obtained: […]

Regarding `CO` [Methanol, methanol], the A550 nm by setting is: (After One Week) 0.094; (After Two Weeks) 0.085; (Start) 0.069.
